Results reported in patent US20100298314A1, “NOVEL JNK INHIBITORS” (Schering Corporation, priority 2006, published 2010).
Where “and” joins values, the source holds several entries; their conditions need not be identical. Equal entries are not always repeated. Where two headings read alike, the source gives them in different places.

Experiments:
Format in all cases: biochemical
JNK1 = JNK1 (Homo sapiens, UniProt P45983); test: JNK1 kinase DELFIA (phosphorylation of biotinylated GST-ATF2)
Procedure: (§1) Before initiation of kinase reactions, compounds were pre-incubated with the enzyme for 10 minutes. Pre-incubation reactions contained 50 mM HEPES pH 7.3, 10 mM MgCl2, 1 mM DTT, 75 mM NaCl, 1 mM EDTA, 1 mM EGTA, 0.01% CHAPS, 2 nM JNK1, 6 ug/mL biotinylated GST-ATF2, 0.1 mg/ml BSA, 5% DMSO and 0-100 μM compound in a total volume of 40 μL. After a 10 minute room temperature pre-incubation, 10 μL of 35 μM ATP was added to start the reaction (final concentration of ATP=7 uM). Reactions were incubated at room temperature for 30 minutes. A small aliquot (10 uL) was taken and quenched by adding into 190 uL of DELFIA Assay buffer containing 100 mM EDTA. The amount of phosphate transferred to biotinylated GST-ATF2 was measured using the Dissociation Enhanced Lanthanide Fluorescence Immuno-assay (DELFIA) from Perkin Elmer according to manufacturers protocol. Briefly, biotinylated GST-ATF2 was captured on streptavidin coated plates for 1 hour, washed twice, then incubated for 1 hour with a 1:1000 dilution of rabbit-anti-phospho-ATF2 antibody and a 1:3500 dilution of Europium-labeled anti-rabbit secondary antibody. Free antibody was removed with six washes, Europium was dissociated from the antibody, and Europium fluorescence was measured using an excitation wavelength of 340 nm and an emission wavelength of 615 nm. JNK2 and JNK3 kinase reactions were carried out similarly, with the exception that the final concentration of ATP was 4 uM and 2 uM, respectively.

JNK3 = JNK3 (Homo sapiens, UniProt P53779); test: JNK3 kinase DELFIA (phosphorylation of biotinylated GST-ATF2); details: final ATP 2 uM
JNK3, sequence (P53779 whole entry, species assumed): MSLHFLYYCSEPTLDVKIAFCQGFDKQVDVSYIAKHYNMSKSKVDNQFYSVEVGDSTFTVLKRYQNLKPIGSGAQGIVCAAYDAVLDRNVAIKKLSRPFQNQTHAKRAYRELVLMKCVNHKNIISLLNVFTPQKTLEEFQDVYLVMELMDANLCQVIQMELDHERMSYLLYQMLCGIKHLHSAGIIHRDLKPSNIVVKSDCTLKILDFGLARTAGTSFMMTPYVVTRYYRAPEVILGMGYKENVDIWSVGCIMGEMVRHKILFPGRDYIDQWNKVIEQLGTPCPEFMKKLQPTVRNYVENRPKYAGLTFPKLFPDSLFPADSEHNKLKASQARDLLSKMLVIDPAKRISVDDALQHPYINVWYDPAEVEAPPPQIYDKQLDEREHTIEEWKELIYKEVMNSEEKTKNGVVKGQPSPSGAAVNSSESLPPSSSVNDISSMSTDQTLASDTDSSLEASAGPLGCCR
Procedure: as §1

JNK2 = JNK2 (Homo sapiens, UniProt P45984); test: JNK2 kinase DELFIA (phosphorylation of biotinylated GST-ATF2); details: final ATP 4 uM, reported as range for a group
JNK2, sequence (P45984 whole entry, species assumed): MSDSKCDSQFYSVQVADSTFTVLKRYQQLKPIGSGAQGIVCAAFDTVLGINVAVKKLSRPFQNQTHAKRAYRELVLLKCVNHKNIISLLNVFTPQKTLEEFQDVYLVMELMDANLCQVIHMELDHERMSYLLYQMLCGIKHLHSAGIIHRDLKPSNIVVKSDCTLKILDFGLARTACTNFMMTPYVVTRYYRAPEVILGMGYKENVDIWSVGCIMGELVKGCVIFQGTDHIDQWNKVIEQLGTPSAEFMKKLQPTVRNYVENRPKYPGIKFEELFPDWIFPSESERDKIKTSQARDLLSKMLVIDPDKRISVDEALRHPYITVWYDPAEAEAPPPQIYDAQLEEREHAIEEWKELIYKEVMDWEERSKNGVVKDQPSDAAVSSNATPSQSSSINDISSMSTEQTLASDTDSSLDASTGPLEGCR
Procedure: as §1

[1] = DELFIA, 2 nM JNK1, final ATP 7 uM, 10 min pre-incubation, reported as range for a group

JNK1, sequence (P45983 whole entry, species assumed): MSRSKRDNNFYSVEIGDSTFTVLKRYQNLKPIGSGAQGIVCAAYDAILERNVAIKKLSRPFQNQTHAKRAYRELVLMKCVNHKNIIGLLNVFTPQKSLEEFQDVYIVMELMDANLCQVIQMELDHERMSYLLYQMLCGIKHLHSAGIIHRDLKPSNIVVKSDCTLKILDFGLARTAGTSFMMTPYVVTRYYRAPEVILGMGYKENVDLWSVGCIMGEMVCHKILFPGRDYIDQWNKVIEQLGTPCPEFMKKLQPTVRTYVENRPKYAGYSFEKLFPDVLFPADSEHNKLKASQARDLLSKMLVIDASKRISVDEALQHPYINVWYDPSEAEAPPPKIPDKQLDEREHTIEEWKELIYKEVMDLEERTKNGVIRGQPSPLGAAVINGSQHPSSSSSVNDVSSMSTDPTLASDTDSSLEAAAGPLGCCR

SMILES	IC50 (JNK1; [1])	IC50 (JNK3)	IC50 (JNK2)	IC50 (JNK1; read-out: JNK 1 IC50)
CC(C)C[C@@H](CO)NC(=O)c1c(-c2ccsc2)nc2c(C(=O)NCc3ccc4nc(N)sc4c3)cccn12 [Compound 14]	0.006 to 0.1 µM and 0.006 to 0.02 µM	0.009 to 0.05 µM	0.004 to 0.046 µM	
Nc1nc2ccc(CNC(=O)c3cccn4c(C(=O)N[C@H](CO)c5ccccc5)c(-c5ccsc5)nc34)cc2s1 [Compound 16]	0.006 to 0.1 µM and 0.006 to 0.02 µM	0.009 to 0.05 µM	0.004 to 0.046 µM	0.019 µM
CC(C)(C)[C@@H](CO)NC(=O)c1c(-c2ccsc2)nc2c(C(=O)NCc3ccc4nc(N)sc4c3)cccn12 [Compound 17]	0.006 to 0.1 µM	0.009 to 0.05 µM	0.004 to 0.046 µM	
C[C@@H](CO)NC(=O)c1c(-c2ccsc2)nc2c(C(=O)NCc3ccc4nc(N)sc4c3)cccn12 [Compound 22]	0.006 to 0.1 µM	0.009 to 0.05 µM	0.052 to 0.094 µM	
Nc1nc2ccc(CNC(=O)c3cccn4c(C(=O)NC[C@H]5CCCCC[C@H]5O)c(-c5ccsc5)nc34)cc2s1 [Compound 48]	0.006 to 0.1 µM	0.209 to 0.479 µM	0.107 to 0.173 µM	
Nc1nc2ccc(CNC(=O)c3cccn4c(C(=O)N[C@H]5CC[C@H](O)CC5)c(-c5ccsc5)nc34)cc2s1 [Compound 56]	0.006 to 0.1 µM	0.118 to 0.174 µM	0.107 to 0.173 µM	
C[C@@H](NC(=O)c1c(-c2ccsc2)nc2c(C(=O)NCc3ccc4nc(N)sc4c3)cccn12)[C@@H](O)c1ccccc1 [Compound 62]		0.054 to 0.098 µM	0.107 to 0.173 µM	
CS(=O)(=O)c1ccc(CNC(=O)c2cccn3c(C(=O)N[C@H](CO)c4ccccc4)c(-c4ccsc4)nc23)cc1 [Compound 93]	0.006 to 0.1 µM	0.054 to 0.098 µM	0.052 to 0.094 µM	
CC(C)C[C@@H](CO)NC(=O)c1c(-c2ccsc2)nc2c(C(=O)NCc3ccc4nc[nH]c4c3)cccn12 [Compound 111]		0.054 to 0.098 µM	0.052 to 0.094 µM	
Cc1nc2cc(CNC(=O)c3cccn4c(C(=O)N[C@H](CO)CC(C)C)c(-c5ccsc5)nc34)ccc2[nH]1 [Compound 112]	0.006 to 0.02 µM and 0.006 to 0.01 µM	0.009 to 0.05 µM	0.004 to 0.046 µM	0.008 µM
CC(C)C[C@@H](CO)NC(=O)c1c(-c2ccsc2)nc2c(C(=O)NCc3ccc4ncsc4c3)cccn12 [Compound 113]		0.054 to 0.098 µM	0.052 to 0.094 µM	
CC(C)C[C@@H](CO)NC(=O)c1c(-c2ccsc2)nc2c(C(=O)NCc3ccc4nc(C(C)C)[nH]c4c3)cccn12 [Compound 114]	0.006 to 0.02 µM	0.009 to 0.05 µM	0.004 to 0.046 µM	
CC(C)C[C@@H](CO)NC(=O)c1c(-c2ccsc2)nc2c(C(=O)NCc3ccc4ncccc4c3)cccn12 [Compound 115]		0.009 to 0.05 µM	0.004 to 0.046 µM	
Cc1nc2ccc(CNC(=O)c3cccn4c(C(=O)N[C@H](CO)CC(C)C)c(-c5ccsc5)nc34)cc2s1 [Compound 130]	0.006 to 0.1 µM	0.009 to 0.05 µM	0.004 to 0.046 µM	
CNc1nc2ccc(CNC(=O)c3cccn4c(C(=O)N[C@H](CO)CC(C)C)c(-c5ccsc5)nc34)cc2s1 [Compound 155]		0.009 to 0.05 µM	0.004 to 0.046 µM	
CC[C@H](CO)NC(=O)c1c(-c2ccsc2)nc2c(C(=O)N[C@@H](C)c3ccc(S(C)(=O)=O)cc3)cccn12 [Compound 170]		0.118 to 0.174 µM	1.07 to 11.5 µM	
CC[C@@H](CO)NC(=O)c1c(-c2ccsc2)nc2c(C(=O)NCc3ccc(-n4nccc4C(C)C)cc3)cccn12 [Compound 178]		0.209 to 0.479 µM	0.201 to 0.666 µM	
CC[C@@H](CO)NC(=O)c1c(-c2ccsc2)nc2c(C(=O)NCc3ccc(Cl)nc3)cccn12 [Compound 181]		0.118 to 0.174 µM	0.201 to 0.666 µM	
CC(C)C[C@H](CO)NC(=O)c1c(-c2ccsc2)nc2c(C(=O)NCc3ccc(S(C)(=O)=O)cc3)cccn12 [Compound 205]		0.054 to 0.098 µM	0.052 to 0.094 µM	
CC(C)C[C@@H](CO)NC(=O)c1c(-c2ccsc2)nc2c(C(=O)NCc3ccc(N4CCCC4=O)cc3)cccn12 [Compound 206]		0.054 to 0.098 µM	0.052 to 0.094 µM	
CC(C)C[C@@H](CO)NC(=O)c1c(-c2ccsc2)nc2c(C(=O)NCc3ccc(-c4ccccn4)s3)cccn12 [Compound 215]		0.009 to 0.05 µM	0.052 to 0.094 µM	
CC(C)C[C@@H](CO)NC(=O)c1c(-c2ccsc2)nc2c(C(=O)NCc3cnn(-c4ccccc4)c3)cccn12 [Compound 216]	0.006 to 0.02 µM	0.009 to 0.05 µM	0.004 to 0.046 µM	

SMILES	IC50 (JNK1; [1])	IC50 (JNK3)	IC50 (JNK2)	IC50 (JNK1; read-out: JNK 1 IC50)
Cc1cccc(-n2cc(CNC(=O)c3cccn4c(C(=O)N[C@H](CO)CC(C)C)c(-c5ccsc5)nc34)cn2)c1 [Compound 218]	0.006 to 0.02 µM	0.009 to 0.05 µM	0.004 to 0.046 µM	
Cc1ccc(-n2cc(CNC(=O)c3cccn4c(C(=O)N[C@H](CO)CC(C)C)c(-c5ccsc5)nc34)cn2)cc1 [Compound 219]	0.006 to 0.02 µM	0.009 to 0.05 µM	0.004 to 0.046 µM	
CC(C)C[C@@H](CO)NC(=O)c1c(-c2ccsc2)nc2c(C(=O)NCC3CCN(C(=O)c4cccnc4)CC3)cccn12 [Compound 230]		0.209 to 0.479 µM	0.201 to 0.666 µM	
CC(C)C[C@H](CO)NC(=O)c1c(-c2ccsc2)nc2c(C(=O)NCc3ccc(N4CCCC4)nc3)cccn12 [Compound 291]	0.006 to 0.1 µM	0.054 to 0.098 µM	0.107 to 0.173 µM	
CC(C)C[C@@H](CO)NC(=O)c1c(-c2ccsc2)nc2c(C(=O)NCc3ccnc(N4CCCC4)c3)cccn12 [Compound 296]	0.006 to 0.1 µM and 0.006 to 0.02 µM	0.009 to 0.05 µM	0.004 to 0.046 µM	
CC(C)C[C@@H](CO)NC(=O)c1c(-c2ccsc2)nc2c(C(=O)NCc3ccc(N4CCN(C)CC4)nc3)cccn12 [Compound 299]	0.006 to 0.1 µM	0.009 to 0.05 µM	0.004 to 0.046 µM	
CC(C)C[C@@H](CO)NC(=O)c1c(-c2ccsc2)nc2c(C(=O)NCc3ccc(N4CCOCC4)nc3)cccn12 [Compound 300]	0.006 to 0.1 µM and 0.006 to 0.02 µM	0.009 to 0.05 µM	0.004 to 0.046 µM	
CC(C)C[C@@H](CO)NC(=O)c1c(-c2ccsc2)nc2c(C(=O)NCc3ccc(N4CCCCC4)nc3)cccn12 [Compound 301]	0.006 to 0.1 µM	0.009 to 0.05 µM	0.004 to 0.046 µM	
CC(C)C[C@@H](CO)NC(=O)c1c(-c2ccsc2)nc2c(C(=O)NCc3ccc(-c4cccnc4)nc3)cccn12 [Compound 306]	0.006 to 0.1 µM and 0.006 to 0.02 µM	0.009 to 0.05 µM	0.004 to 0.046 µM	
CC(C)C[C@@H](CO)NC(=O)c1c(-c2ccsc2)nc2c(C(=O)NCc3ccc(-c4ccncc4)nc3)cccn12 [Compound 307]	0.006 to 0.1 µM and 0.006 to 0.02 µM	0.009 to 0.05 µM	0.004 to 0.046 µM	
Cc1ccn(-c2ccc(CNC(=O)c3cccn4c(C(=O)N[C@H](CO)CC(C)C)c(-c5ccsc5)nc34)cn2)n1 [Compound 323]	0.006 to 0.1 µM	0.009 to 0.05 µM	0.004 to 0.046 µM	
CC(C)C[C@@H](CO)NC(=O)c1c(-c2ccsc2)nc2c(C(=O)NCc3ccc(N)nc3)cccn12 [Compound 327]	0.006 to 0.1 µM	0.054 to 0.098 µM	0.004 to 0.046 µM	
Cc1cc(C(=O)NCc2ccc3nc(N)sc3c2)c2nc(-c3ccsc3)c(C(=O)N[C@@H](CO)CC(C)C)n2c1 [Compound 350]		16.1 µM	1.07 to 11.5 µM	
CC(C)C[C@@H](CO)NC(=O)c1c(-c2ccccc2)nc2c(C(=O)NCc3ccc4nc(N)sc4c3)cccn12 [Compound 451]	0.006 to 0.1 µM	0.009 to 0.05 µM	0.004 to 0.046 µM	
CC(C)C[C@@H](CO)NC(=O)c1c(-c2ccc(F)cc2)nc2c(C(=O)NCc3ccc4nc(N)sc4c3)cccn12 [Compound 452]	0.006 to 0.1 µM	0.054 to 0.098 µM	0.052 to 0.094 µM	
CCc1nc2c(C(=O)NCc3ccc4nc(N)sc4c3)cccn2c1C(=O)N[C@H](CO)CC(C)C [Compound 456]	0.006 to 0.1 µM	0.009 to 0.05 µM	0.004 to 0.046 µM	
CCc1nc2c(C(=O)NCc3ccc4nc(C)n(C)c4c3)cccn2c1C(=O)N[C@H](CO)CC(C)C [Compound 463]	0.006 to 0.02 µM	0.009 to 0.05 µM	0.004 to 0.046 µM	
CC(C)C[C@@H](CO)NC(=O)c1c(-c2ccccn2)nc2c(C(=O)NCc3ccc4nc(N)sc4c3)cccn12 [Compound 478]	0.006 to 0.1 µM and 0.006 to 0.02 µM and 0.006 to 0.01 µM	0.009 to 0.05 µM	0.004 to 0.046 µM	0.01 µM
Cc1nc2ccc(CNC(=O)c3cccn4c(C(=O)N[C@H](CO)CC(C)C)c(-c5ccccn5)nc34)cc2[nH]1 [Compound 479]	0.006 to 0.1 µM and 0.006 to 0.02 µM and 0.006 to 0.01 µM	0.009 to 0.05 µM	0.004 to 0.046 µM	
Cc1nc2ccc(CNC(=O)c3cccn4c(C(=O)N[C@H](CO)CC(C)C)c(-c5ccccn5)nc34)cc2n1C [Compound 483]	0.006 to 0.1 µM and 0.006 to 0.02 µM	0.009 to 0.05 µM	0.004 to 0.046 µM	0.011 µM
CC(C)C[C@@H](CO)NC(=O)c1c(-c2cccs2)nc2c(C(=O)NCc3ccc4nc(N)sc4c3)cccn12 [Compound 542]	0.006 to 0.1 µM	0.009 to 0.05 µM	0.004 to 0.046 µM	
CC(C)C[C@@H](CO)NC(=O)c1c(-c2cc(F)cc(F)c2)nc2c(C(=O)NCc3ccc4nc(N)sc4c3)cccn12 [Compound 544]	0.006 to 0.1 µM	0.009 to 0.05 µM	0.004 to 0.046 µM	0.023 µM
